This note sets out measurements from patent publication US11752125B2, “Anti-neuroinflammatory and protective compounds in Achillea fragrantissima” (THE STATE OF ISRAEL MINISTRY OF AGRICULTURE & RURAL …, priority 2013, dated 2023).

Type in all cases: cell-based
Data set [1] deals with N2a neuronal cells. Briefly: Aβ25-35-induced ROS elevation in N2a cells. To be noted: Aβ25-35 25 μM, 20 hr. The procedure:
2. Plate N2a cells (10,000 cells/0.2 ml/well of 96 wells plate) in DMEM (high glucose, 225 ml), Opti-MEM (250 mil) containing 5% Fetal Bovine Serum, 2 mM L-Glutamine, 100 U/ml penicillin and 100 micrograms/mL streptomycin and incubate (37° C., 5% CO2) for 24 hr. 3. Replace the medium with a fresh one containing 20 micromolars 2′7′-dichlorofluorescein diacetate (DCF-DA); 4. Incubate 30 min (37° C., 5% CO2); 5. Wash twice with PBS; 6. Replace with fresh medium; 7. Read fluorescence of “time 0” at 485 nm (Extinction) and 528 nm (Emmision). 8. Incubate the cultured cells for 2 hours with freshly diluted TTF or AcA of the invention; 9. Add freshly diluted Aβ25-35 (25 micromolars); 10. Read fluorescence at 20 hr after the addition of Aβ25-35 (25 micromolars) (Ex: 485 nm and Em: 528 nm). 11. A reduction of 70% of ROS levels are indication for an anti-oxidant activity in this assay.
N2a neuronal cells were treated with Aβ25-35 (25 μM) and TTF. ROS levels were measured 20 hr later. The results are shown in FIG. 11 and are the mean±SEM of two different experiments (n=15).
(§1) N2a neuronal cells were treated with Aβ25-35 (25 μM) and achillolide A. Cytotoxicity (FIG. 27A) viability (FIG. 27B) and ROS levels (FIG. 27C) were measured 20 hr later. The results are the mean±SEM of two different experiments (n=16).

The subject of data set [2] is N2a neuronal cells. As to the kind of experiment: Glutamate-induced ROS elevation in N2a cells. Conditions: glutamate 100 μM, 20 hr. The procedure:
1. Plate N2a cells (10,000 cells/0.2 ml/well of 96 wells plate) in DMEM (high glucose, 225 ml), Opti-MEM (250 ml) containing 1% Fetal Bovine Serum, 2 mM L-Glutamine, 100 U/ml penicillin and 100 micrograms/mL streptomycin and incubate (37° C., 5% CO2) for 24 hr. 2. Replace growth medium with a fresh one containing 20 micromolars 2′7′-dichlorofluorescein diacetate (DCF-DA); 3. Incubate 30 min (37° C., 5% CO2); 4. Wash twice with PBS; 5. Replace with fresh medium; 6. Read fluorescence of “time 0” at 485 nm (Extinction) and 528 nm (Emmision). 7. Incubate the cultured cells for 2 hours with freshly diluted TTF or AcA of the invention; 8. Add freshly diluted glutamate (100 micromolars); 9. Read fluorescence at 20 hr after the addition of glutamate (100 micromolars) (Ex: 485 nm and Em: 528 nm). 10. A reduction of 55% of ROS levels are indication for an anti-oxidant activity in this assay.
N2a neuronal cells were treated with glutamate (100 μM) and TTF. ROS levels were measured 20 hr later. The results are shown in FIG. 17 and are the mean±SEM of two different experiments (n=16).
N2a neuronal cells were treated with glutamate (100 μM) and achillolide A. ROS levels were measured 20 hr later. […]
Achillolide A was added to N2a cells before (−2 h, −1 h) concomitant (0) or after (1 h, 2 h) the addition of glutamate. ROS levels were measured 20 h later. […]

In data set [3] the test system is N2a neuronal cells. Briefly: Aβ25-35-induced neuronal cell death (LDH, crystal violet). Conditions: Aβ25-35 25 μM, 20 hr; LDH and crystal violet. Here is the method:
Treat N2a neuronal cells with 25 micromolars of freshly diluted Aβ25-35 in the presence or absence of AcA or TTF.
N2a neuronal cells were treated with Aβ25-35 (25 μM) and TTF. Cytotoxicity (FIG. 10A) and viability (FIG. 10B) were obtained through LDH method and Crystal violet staining respectively and measured 20 hr later. The results are the mean±SEM of two different experiments (n=15).
as §1

For `COc1cc(-c2oc3cc(OC)c(OC)c(O)c3c(=O)c2O)ccc1O` [TTF, 3,5,4′-trihydroxy-6,7,3′-trimethoxyflavone], in the data set on N2a neuronal cells [1], the “effect on Aβ25-35-induced ROS elevation” value was “prevents the elevation in ROS levels”. Further, the “effect on glutamate-induced ROS elevation” value in the data set with N2a neuronal cells [2] was “prevents the elevation in ROS levels”. The “effect on Aβ25-35-induced cytotoxicity” value with N2a neuronal cells [3] is “prevents the cytotoxic effect at nanomolar concentrations”.
`C=C1CCC2=C(CO)C(=O)O[C@H]2/C=C(\C)[C@H](OC(C)=O)CC1=O` [achillolide A]: in the data set with N2a neuronal cells [1], the “effect on Aβ25-35-induced ROS elevation” value is given as “prevents the elevation in ROS levels”. For the same molecule, in the data set with N2a neuronal cells [2], the “effect on glutamate-induced ROS elevation” value was “prevents the elevation in ROS levels”. For the same molecule, the “effect on Aβ25-35-induced cytotoxicity” value with N2a neuronal cells [3] is listed as “prevents the cytotoxic effect at nanomolar concentrations”.
